Reference: paper PMC8371548 (BioTechniques, 2021)
“Also recorded” adds a separate entry of the source.

Tests used:
H295R cells = test: H295R cell-based steroidogenesis assay; set-up: species or system human; details: for effect on testosterone production in words: 10^−11 to 10^−5 M
AR [1] = details: cited from earlier work; for EC50: read-out: AR-EcoScreen assay EC50, ref Dennis et al. [18]
AR [2] = details: cited from earlier work
androgen receptor (AR) = molecular target: T1, androgen receptor (AR) (Homo sapiens, UniProt P10275); type: cell-based
T1 sequence (P10275 1-920): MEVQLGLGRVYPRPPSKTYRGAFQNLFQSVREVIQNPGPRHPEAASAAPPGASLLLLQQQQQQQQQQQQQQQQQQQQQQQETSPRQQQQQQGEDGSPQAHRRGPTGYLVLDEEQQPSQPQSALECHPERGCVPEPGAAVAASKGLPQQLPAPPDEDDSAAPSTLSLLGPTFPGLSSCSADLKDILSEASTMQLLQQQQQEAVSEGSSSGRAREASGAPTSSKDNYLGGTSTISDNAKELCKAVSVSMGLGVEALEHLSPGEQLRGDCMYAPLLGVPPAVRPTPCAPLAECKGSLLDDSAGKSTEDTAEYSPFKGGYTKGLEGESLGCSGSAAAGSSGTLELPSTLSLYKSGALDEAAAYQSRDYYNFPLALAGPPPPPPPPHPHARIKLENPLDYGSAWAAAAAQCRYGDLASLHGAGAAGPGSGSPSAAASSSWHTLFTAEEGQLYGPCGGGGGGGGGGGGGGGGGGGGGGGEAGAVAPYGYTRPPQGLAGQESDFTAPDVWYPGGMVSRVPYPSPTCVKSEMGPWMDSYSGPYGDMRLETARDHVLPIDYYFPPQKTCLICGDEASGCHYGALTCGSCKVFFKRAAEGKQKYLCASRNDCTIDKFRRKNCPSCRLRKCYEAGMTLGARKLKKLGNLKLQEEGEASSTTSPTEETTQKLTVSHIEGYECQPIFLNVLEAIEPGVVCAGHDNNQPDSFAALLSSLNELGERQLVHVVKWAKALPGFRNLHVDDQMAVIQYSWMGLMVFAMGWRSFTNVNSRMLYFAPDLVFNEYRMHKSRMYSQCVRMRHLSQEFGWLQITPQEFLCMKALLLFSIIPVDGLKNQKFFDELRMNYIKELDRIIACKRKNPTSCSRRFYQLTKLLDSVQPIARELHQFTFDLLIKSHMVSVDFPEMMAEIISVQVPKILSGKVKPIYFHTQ

AR [3] = details: read-out: IC50 range in ICCVAM meta-analysis; cited from earlier work
AR [4] = details: cited from earlier work; remark: listed apart in the source
AR [5] = details: cited from earlier work; remark: listed apart in the source
AR [6] = details: at high concentrations (10^−5 M); cited from earlier work

**Q.** With C#CC1(O)CC[C@H]2[C@@H]3CCC4=CC(=O)CC[C@@H]4[C@H]3CC[C@@]21CC (mixture of isomers) [Norgestrel, norgestrel] as the compound, how does the “effect on testosterone production in words” value (“effect … in words” for short) (H295R cells) read?
**A.** increased testosterone production

**Q.** And the EC50 (H295R cells; Homo sapiens, NCI-H295R, read-out: H295R testosterone assay EC50)?
**A.** 730 nM

**Q.** Which “AR antagonist classification in AR-EcoScreen assay” value (AR [2]) does the source give for C#C[C@]1(O)CC[C@H]2[C@@H]3CCc4cc(O)ccc4[C@H]3CC[C@@]21C [17α-Ethinylestradiol, 17α-Ethynylestradiol] here?
**A.** AR antagonist

**Q.** With C[C@]12C=CC3=C4CCC(=O)C=C4CC[C@H]3[C@@H]1CC[C@@H]2O [17β-Trenbolone, 17ß-Trenbolone] as the compound, how does the “AR agonist activity in words” value (androgen receptor (AR)) read?
**A.** strongly induced autobioluminescence; also recorded: induced autobioluminescent signal exceeding the maximal response of 5α-dihydrotestosterone

**Q.** Which “AR agonistic effects in yeast-based reporter assays” value (AR [4]) does the source give for C[C@]12C[C@H](O)[C@H]3[C@@H](CCC4=CC(=O)CC[C@@]43C)[C@@H]1CC[C@@H]2C(=O)CO [Corticosterone] here?
**A.** failed to elicit positive AR agonistic effects

**Q.** What about the “AR transcriptional activity in MDA-kb2 assay” value (AR [5]) of the same compound?
**A.** Positive AR transcriptional activity

**Q.** And the “AR agonist classification in AR-EcoScreen assay” value (AR [1])?
**A.** Positive AR transcriptional activity

**Q.** Which “effect … in words” value (H295R cells) does the source give for CC(C)C(=O)Nc1ccc([N+](=O)[O-])c(C(F)(F)F)c1 [Flutamide] here?
**A.** did not induce autobioluminescence or change testosterone production

**Q.** What about the “effect … in words” value (H295R cells; listed as flutamide) of the same compound?
**A.** did not demonstrate a detectable change in testosterone production

**Q.** Which results are given for CC(C)(O)C(=O)Nc1ccc([N+](=O)[O-])c(C(F)(F)F)c1 [Hydroxyflutamide]?
**A.** effect on testosterone production in words (H295R cells): did not alter testosterone production; effect on testosterone production in words (H295R cells; listed as hydroxyflutamide): did not change testosterone levels; AR transcriptional activation activity (AR [6]): low AR transcriptional activation activity; IC50 (AR [3]): […]

**Q.** What does the source list for CC(=O)N1CCN(c2ccc(OCC3COC(Cn4ccnc4)(c4ccc(Cl)cc4Cl)O3)cc2)CC1 (stereo not drawn) [Ketoconazole]?
**A.** AR agonism response in yeast assays (AR [4]): positive AR agonism response; AR agonist classification in AR-EcoScreen assay (AR [1]): negative AR agonist

**Q.** Which EC50 (AR [1]) does the source give for C[C@]12CC[C@H]3[C@@H](CCC4=CC(=O)CC[C@@]43C)[C@@H]1CC[C@@H]2O [Testosterone] here?
**A.** […]
